Paper PMC5665883, “Antithrombotic properties of JJ1, a potent and novel thrombin inhibitor” (Scientific Reports, 2017)
Marks after values point to notes of the source that are not given here.

Experiments:
human plasma [1] = assay: In vitro PT clotting time; assay type: biochemical; details: for PT / PT (INR): in vitro
Protocol: The aPTT and PT were determined using a Thrombotimer (Behnk Elektronik, Norderstedt, Germany) in accordance with the manufacturer’s instructions and as previously described. Briefly, citrated normal human plasma (90 μL) was mixed with 10 μL JJ1 and incubated for 1 min at 37 °C. Subsequently, the aPTT assay reagent (100 μL) was added, the plasma sample was incubated for an additional 1 min at 37 °C, 20 mM CaCl2 (100 μL) was added, and the clotting times were recorded. For the PT assays, citrated normal human plasma (90 μL) was mixed with 10 μL JJ1 stock solution and was incubated for 1 min at 37 °C. The PT assay reagent (200 μL), which had been pre-incubated for 10 min at 37 °C, was subsequently added and the clotting time was recorded. The PT results were expressed in seconds and as International Normalized Ratios (INR): INR = (PT sample/PT control)^ISI, where ISI = international sensitivity index. The aPTT results were also expressed in seconds. All experimental protocols (KNUH 2012-01-010) were approved by the Institutional Review Board of Kyungpook National University Hospitals (Daegu, Republic of Korea).

human platelets = assay: In vitro thrombin-induced platelet aggregation; assay type: cell-based; details: washed human platelets
Protocol: (§1) The in vitro platelet aggregation study was performed according to a previously reported method[59],[62]. Washed human platelets were incubated with the indicated concentration of JJ1 in DMSO for 1, 3, 5, or 10 min and subsequently stimulated by thrombin in 0.9% saline solution at 37 °C for 5 min. Platelet aggregation was recorded using an aggregometer (Chronolog, Havertown, PA, USA). For the ex vivo aggregation assay, male mice were fasted overnight and the indicated concentration of JJ1 in DMSO was administered by i.v. injection. After 24 h, PRP (10^9 platelets/mL) in a total volume of 240 μL was incubated at 37 °C for 1.5 min in the aggregometer with continuous stirring at 1000 rpm and subsequently stimulated with thrombin. Platelet aggregation was recorded as described above.

human plasma [2] = assay: In vitro aPTT clotting time; assay type: biochemical; details: at the maximum antithrombotic dose
mouse platelet = assay: Ex vivo thrombin-induced platelet aggregation; assay type: in vivo; details: i.v. injection
Protocol: as §1

[3] = tested on: thrombin-catalyzed fibrin polymerization in human plasma; assay: Thrombin-catalyzed fibrin polymerization; assay type: biochemical; details: absorbance at 360 nm
Protocol: Thrombin-catalyzed polymerization was determined every 6 s for 20 min by monitoring the turbidity of the solution at 360 nm at ambient temperature by using a spectrophotometer (TECAN, Männedorf, Switzerland). Control plasma and plasma incubated with JJ1 were diluted three-fold in […] and clotted with thrombin (final concentration: 0.5 U/mL). The maximum polymerization rate (Vmax, ΔmOD/min) from each absorbance curve was recorded.

HUVECs = assay: Production of thrombin on the surfaces of HUVECs; assay type: cell-based, human; details: HUVECs with FVa, FXa, prothrombin
Protocol: Thrombin production by HUVECs was quantified as previously described[63],[68]. Briefly, HUVECs were pre-incubated in 300 μL of a solution containing JJ1 in 50 mM Tris-HCl buffer, 100 pM FVa, and 1 nM FXa for 10 min, followed by the addition of prothrombin to a final concentration of 1 μM. After 10 min, duplicate samples (10 μL each) were transferred into a 96-well plate containing 40 μL 0.5 M EDTA in TBS per well to terminate the prothrombin activation. Activated prothrombin was determined by the measurement of the rate of hydrolysis of S-2238 (a thrombin substrate) at 405 nm. Standard curves were prepared with known amounts of purified thrombin.

thrombin = target: T1, thrombin (Homo sapiens, UniProt P00734); assay: Enzyme-based assay of purchased virtual screening molecules, single dose; assay type: biochemical; details: single concentration of 50 μM
T1 construct: purchased Haematologic Technologies (Essex Junction, VT)
Description: Prior to the high-throughput virtual screening, we selected the best crystal structure for docking with DOCK 3.6[17] using the selected inhibitors and their physicochemically matched but topologically different decoys. […] Because the earlier enrichment of true positives is more important for high throughput SBVS, we used the value of LogAUC as a metric, selecting 2CF9-H[18] as the best structure. […] Besides, the enrichment at 1% (EF1) was 37.1. The values of LogAUC and EF1 were approximately two-fold higher than the averages (26.1 for LogAUC and 17.1 for EF1) (Figs 1 and S1). Some structures had higher AUC values than that of 2CF9-H, but the value of LogAUC was the highest for 2CF9-H (Fig. S1). The optimization necessitated the calculations of more than 2 million protein and ligand pairs. The high speed of DOCK 3.6 and the in-house Linux cluster system consisting of 128 cores efficiently managed the calculations in three days. Of the candidate molecules having the lowest scores in the high-throughput SBVS, we chose the molecules with desirable geometries and physicochemical properties by a simple manual and visual inspection. […] It is known that the scoring function of virtual screening itself is insufficient to capture such an abnormality. Table S1 and Fig. S2 list the top 40 molecules, which were selected through high-throughput SBVS; we purchased these molecules to measure enzymatic inhibitory activity.

Trypsin = assay: Chromogenic substrate assay, Ki (Dixon); assay type: biochemical, human; details: Trypsin; mean ± SD (n = 5)
Protocol: Chromogenic substrate assays were performed using a Labsystems IEMS (Cergy Pontoise, France) microtiter plate reader. K i values were calculated according to the method of Dixon[65]. In each assay, the compound was tested at a minimum of seven concentrations, in duplicate, to obtain an inhibition curve. The following general procedures were adopted for each assay. In a 96-well microtiter plate, 25 μL of inhibitor solution or buffer was added to 50 μL of substrate. The enzyme solution (25 μL) was added just before the plate was placed in the microtiter plate reader for 1 h at 37 °C. The hydrolysis of the substrate yields p-nitroaniline, which was continuously monitored spectrophotometrically at 405 nm. The maximal initial reaction rates were calculated and expressed as millioptical density per minute.

c1ccc2c(NC3CCCC3)nc(Nc3ccncc3)nc2c1 [JJ1]
Concentration that doubled the clotting time, PT assay (human plasma [1]): 1.61 µM | PT (human plasma [1]; 0.05 μM): 12.1 ± 0.2 s | PT (INR) (human plasma [1]; 0.05 μM): 1.04 INR | PT (human plasma [1]; 0.1 μM): 11.7 ± 0.4 s | PT (INR) (human plasma [1]; 0.1 μM): 0.96 INR | PT (human plasma [1]; 0.2 μM): 12.7 ± 0.5 s | PT (INR) (human plasma [1]; 0.2 μM): 1.17 INR | PT (human plasma [1]; 0.5 μM): 15.4 ± 0.4 s | PT (INR) (human plasma [1]; 0.5 μM): 1.86* INR | PT (human plasma [1]; 1.0 μM): 21.4 ± 0.5 s | PT (INR) (human plasma [1]; 1.0 μM): 4.09* INR | PT (human plasma [1]; 2.0 μM): 25.8 ± 0.3 s | PT (INR) (human plasma [1]; 2.0 μM): 6.41* INR | PT (human plasma [1]; 5.0 μM): 26.5 ± 0.4 s | PT (INR) (human plasma [1]; 5.0 μM): 6.83* INR | Human platelet aggregation induced by thrombin (human platelets): significantly inhibited human platelet aggregation induced by thrombin in a concentration-dependent manner | Prolongation of aPTT (human plasma [2]): 2.17 fold | Mouse platelet aggregation induced by thrombin, ex vivo (mouse platelet): confirmed in an ex vivo platelet aggregation assay | Maximal rate of fibrin polymerization [3]: significantly decreased the maximal rate of fibrin polymerization | Production of thrombin (HUVECs): inhibited the production of thrombin in a dose-dependent manner | Degree of inhibition in the enzyme-based assay (thrombin): inhibitory effects | Ki (Trypsin): > 250 µM
